From patent publication US6465482B2, “Arylpiperazinyl-cyclohexyl indole derivatives for the treatment of depression” (Wyeth, priority 1999, dated 2002)

Experiments:
[1] = target: T1, human 5-HT1A receptor subtype (Homo sapiens, UniProt P08908); experiment: 5-HT1A receptor binding, [3H]8-OH-DPAT, CHO cell membranes; conditions: for Ki: [3H]8-OH-DPAT 1.5 nM
T1 construct: expressed in transfected cells
T1 sequence (P08908 1-422): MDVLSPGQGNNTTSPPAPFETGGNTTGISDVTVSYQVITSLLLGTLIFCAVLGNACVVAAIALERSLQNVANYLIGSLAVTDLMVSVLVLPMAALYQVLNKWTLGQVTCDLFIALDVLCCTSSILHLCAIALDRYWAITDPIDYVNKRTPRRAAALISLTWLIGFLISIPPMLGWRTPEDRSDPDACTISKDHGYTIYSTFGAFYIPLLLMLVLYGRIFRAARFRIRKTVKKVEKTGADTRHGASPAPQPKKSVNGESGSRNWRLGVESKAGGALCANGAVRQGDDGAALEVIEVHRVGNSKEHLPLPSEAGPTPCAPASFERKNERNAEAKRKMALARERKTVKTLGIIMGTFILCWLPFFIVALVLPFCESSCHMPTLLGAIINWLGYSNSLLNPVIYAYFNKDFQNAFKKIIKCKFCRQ
Protocol: (§1) The PCR cloning of the human 5-HT1A receptor subtype from a human genomic library has been described previously Chanda et al., Mol. Pharmacol., 43:516 (1993). A stable Chinese hamster ovary cell line expressing the human 5-HT1A receptor subtype (5-HT1A.CH2O cells) was employed throughout this study. Cells were maintained in DMEM supplemented with 10% fetal calf serum, non-essential amino acids and penicillin/streptomycin.
Cells were grown to 95-100% confluency as a monolayer before membranes were harvested for binding studies. Cells were gently scraped from the culture plates, transferred to centrifuge tubes, and washed twice by centrifugation (2000 rpm for 10 min., 4° C.) in buffer (50 mM Tris; pH 7.5). The resulting pellets were aliquoted and placed at −80° C. On the day of assay, the cells were thawed on ice, and resuspended in buffer. Studies were conducted using [^3H]8-OH-DPAT as the radioligand. The binding assay was performed in 96 well microtiter plates in a final total volume of 250 μL of buffer. Competition experiments were performed by using 7 concentrations of unlabelled drug and a final ligand concentration of 1.5 nM. Non-specific binding was determined in the presence of 10 μM 5HT. Saturation analysis was conducted by using [^3H]8-OH-DPAT at concentaritions ranging from 0.3-30 nm Following a 30 minute incubation at room temperature, the reaction was terminated by the addition of ice cold buffer and rapid filtration using a M-96 Brandel Cell Harvester (Gaithersburg, Md.) through a GF/B filter presoaked for 30 minutes in 0.5% polyethylenenimine.

[2] = target: T2, 5-HT1A cloned receptor membrane fragments (Homo sapiens, UniProt P08908); experiment: [35S]-GTPγS binding assay; format: biochemical; conditions: relative to excess 8-OH-DPAT maximum agonist response
T2 construct: expressed in transfected cells
T2 sequence (P08908 1-422): T1 sequence (P08908 1-422)
Protocol: The [^35S]-GTPγS biding assay was similar to that used by Lazarenno and Birdsall, Br. J. Pharmacol. 109:1120 (1993). Briefly, 5-HT1A cloned receptor membrane fragments (as used for 5-HT1A receptor binding assays were stored at −70° C. unit needed. When needed, membranes were rapidly thawed, centrifuged at […] for 10 minutes and resuspended at 4° C. for 10 minutes in assay buffer (25 mM HEPES, 3 mM MgCl2, 100 mM NaCl, 1 mM EDTA, 10 uM GDP, […], pH 8.0). These membranes were then incubated for 30 minutes at 30+ C. with [^35S]GTPgS (1 nM) in the presence of vehicle, test compound (one to eight concentrations), or excess 8-OH-DPAT to define maximum agonist response. All reactions are terminated by the addition of ice cold Tris buffer followed by rapid filtration using a Tom Tech® filtration device to separate bound from free [^35S]GTPgS. Agonists produce an increase in the amount of [^35S]GTPgS bound whereas antagonists produce no increase in binding. Bound radioactivity was counted and analyzed as above.

[3] = target: T3, serotonin transporter (Rattus norvegicus, UniProt P31652); experiment: serotonin transporter affinity, 3H-paroxetine binding, frontal cortical membranes; conditions: 3H-paroxetine 0.1 nM; read-out: ST (Ki, nM,)
T3 construct: frontal cortical membranes prepared from male Sprague-Dawley rats; from tissue; host or cells: rat frontal cortex membranes
T3 sequence (P31652 whole entry): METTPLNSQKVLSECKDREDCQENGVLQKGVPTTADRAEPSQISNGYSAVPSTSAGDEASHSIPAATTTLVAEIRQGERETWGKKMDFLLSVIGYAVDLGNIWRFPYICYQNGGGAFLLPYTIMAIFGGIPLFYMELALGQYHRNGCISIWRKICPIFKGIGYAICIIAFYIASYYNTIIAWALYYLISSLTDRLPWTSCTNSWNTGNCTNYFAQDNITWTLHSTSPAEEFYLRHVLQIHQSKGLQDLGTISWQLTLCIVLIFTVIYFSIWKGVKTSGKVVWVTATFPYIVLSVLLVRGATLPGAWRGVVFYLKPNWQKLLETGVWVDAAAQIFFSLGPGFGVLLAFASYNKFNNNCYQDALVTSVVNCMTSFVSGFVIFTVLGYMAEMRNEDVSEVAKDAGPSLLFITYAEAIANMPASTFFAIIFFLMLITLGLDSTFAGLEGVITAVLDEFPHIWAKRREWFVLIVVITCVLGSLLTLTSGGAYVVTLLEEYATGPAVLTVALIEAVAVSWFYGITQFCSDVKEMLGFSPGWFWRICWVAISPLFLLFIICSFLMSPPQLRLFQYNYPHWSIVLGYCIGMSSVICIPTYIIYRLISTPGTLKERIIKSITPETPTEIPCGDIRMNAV
Protocol: A protocol similar to that used by Cheetham et al., Neuropharmacol. […] Briefly, frontal cortical membranes prepared from male Sprague-Dawley rats were incubated with ^3H-paroxetine (0.1 nM) for 60 minutes at 25° C. […] All reactions are terminated by the addition of ice cold Tris buffer followed by rapid filtration using a Tom Tech filtration device to separate bound from free ^3H-paroxetine.

[4] = target: T4, human 5-HT1A receptor subtype (5-HT1A CHO cells) (Homo sapiens, UniProt P08908); experiment: forskolin-stimulated cAMP formation (cAMP SPA assay); format: cell-based; conditions: forskolin 1 uM
T4 construct: expressed in transfected cells
T4 sequence (P08908 1-422): T1 sequence (P08908 1-422)
Protocol: as §1
The following assays were performed by incubating the cells with DMEM containing 25 mM HEPES, 5 mM theophylline and 10 μM pargyline for a period of 20 minutes at 37° C. Functional activity was assessed by treating the cells with forskolin (1 uM final concentration) followed immediately by test compound (6 concentrations) for an additional 10 minutes at 37° C. In separate experiments, 6 concentrations of antagonist were preincubated for 20 minutes prior to the addition of 10 nM 8-OH-DPAT and forskolin. The reaction was terminated by removal of the media and addition of 0.5 ml ice cold assay buffer. Plates were stored at −20° C. prior to assessment of cAMP formation by a cAMP SPA assay (Amersham).

Compound | Ki [1] | Emax [2] | Ki [3] | Emax [4] | 5-HT1A, value given as % ([1]; concentration not given)
Fc1ccc2c(c1)[nH]cc2[C@H]1CC[C@H](N2CCN(c3cccc4c3OCCO4)CC2)CC1 [Example 25b, 3-{(1,4-trans)-4-[4-(2,3-Dihydro-benzo[1,4]dioxin-5-yl)-piperazin-1-yl]-cyclohexyl}-6-fluoro-1H-indole] | 9.66 nM | 46% | 58 nM |  | 
COc1ccc2[nH]cc([C@H]3CC[C@H](N4CCN(c5ccccc5OC)CC4)CC3)c2c1 [Example 20b, 5-Methoxy-3-{(1,4-trans)-4-[4-(2-methoxy-phenyl)-piperazin-1-yl]-cyclohexyl}-1H-indole] | 14.9 nM | 33% |  | 75.5% | 
Fc1ccc2c(c1)[nH]cc2[C@H]1CC[C@@H](N2CCN(c3cccc4c3OCCO4)CC2)CC1 [Example 25a, 3-{(1,4-cis)-4-[4-(2,3-Dihydro-benzo[1,4]dioxin-5-yl)-piperazin-1-yl]-cyclohexyl}-6-fluoro-1H-indole] | 67.7 nM |  | 63 nM | 0% | 
Cn1cc([C@H]2CC[C@@H](N3CCN(c4cccc5cccnc45)CC3)CC2)c2cc(C#N)ccc21 [Example 30, 1-Methyl-3-[(1,4-cis)-4-(4-quinolin-8-yl-piperazin-1-yl)-cyclohexyl]-1H-indole-5-carbonitrile] | 24.5 nM |  | 1.25 nM | 95% | 
c1cc(N2CCN([C@H]3CC[C@@H](c4c[nH]c5ncccc54)CC3)CC2)c2cc[nH]c2c1 [Example 10a, 3-{(1,4-cis)-4-[4-(1H-Indole-4-yl)-piperazin-1-yl]-cyclohexyl}-1H-pyrrolo[2,3-b]pyridine] | 15.8 nM |  |  | 0% | 
N#Cc1ccc2[nH]cc([C@H]3CC[C@H](N4CCN(c5cccc6cccnc56)CC4)CC3)c2c1 [Example 29b, 3-[(1,4-trans)-4-(4-Quinolin-8-yl-piperazin-1-yl)-cyclohexyl]-1H-indole-5-carbonitrile] |  | 70% |  |  | 
N#Cc1ccc2[nH]cc([C@H]3CC[C@@H](N4CCN(c5cccc6c5OCCO6)CC4)CC3)c2c1 [Example 26a, 3-{(1,4-cis)-4-[4-(2,3-Dihydro-benzo[1,4]dioxin-5-yl)-piperazin-1-yl]-cyclohexyl}-1H-indole-5-carbonitrile] | 59.1 nM | 18% | 4.1 nM | 0% | 
N#Cc1ccc2[nH]cc([C@H]3CC[C@@H](N4CCN(c5cccc6[nH]ccc56)CC4)CC3)c2c1 [Example 7a, 3-{4-[(1,4-cis)-4-(1H-Indol-4-yl)-piperazinyl-1-yl]cyclohexyl}-1H-indole-5-carbonitrile] |  | 0% | 1.62 nM | 0% | 
c1cc(N2CCN([C@H]3CC[C@H](c4c[nH]c5ncccc54)CC3)CC2)c2cc[nH]c2c1 [Example 10b, 3-{(1,4-trans)-4-[4-(1H-Indole-4-yl)-piperazin-1-yl]-cyclohexyl}-1H-pyrrolo[2,3-b]pyridine] | 7.78 nM | 14% |  | 79% | 
Fc1ccc2[nH]cc([C@H]3CC[C@@H](N4CCN(c5cccc6[nH]ccc56)CC4)CC3)c2c1 [Example 3a, 5-Fluoro-3-[cis-4-[4-(1H-indol-4-yl)-1-piperazinyl]cyclohexyl]-1H-indole] | 36.7 nM | 10% |  | 0% | 
Fc1ccc2[nH]cc([C@H]3CC[C@@H](N4CCN(c5cccc6c5OCCO6)CC4)CC3)c2c1 [Example 24a, 3-{(1,4-cis)-4-[4-(2,3-Dihydro-benzo[1,4]dioxin-5-yl)-piperazin-1-yl]-cyclohexyl}-5-fluoro-1H-indole] | 65.7 nM |  | 6.9 nM | 81% | 
N#Cc1ccc2[nH]cc([C@H]3CC[C@@H](N4CCN(c5cc(F)cc6c5OCC6)CC4)CC3)c2c1 [Example 33a, 3-{(1,4-cis)-4-[4-(5-Fluoro-2,3-dihydro-benzofuran-7-yl)-piperazin-1-yl]-cyclohexyl}-1H-indole-5-carbonitrile] | 98.9 nM |  | 1.9 nM |  | 
N#Cc1ccc2[nH]cc([C@H]3CC[C@H](N4CCN(c5cccc6c5OCCO6)CC4)CC3)c2c1 [Example 26b, 3-{(1,4-trans)-4-[4-(2,3-Dihydro-benzo[1,4]dioxin-5-yl)-piperazin-1-yl]-cyclohexyl}-1H-indole-5-carbonitrile] | 8.5 nM | 39% | 23 nM |  | 
Cn1cc([C@H]2CC[C@@H](N3CCN(c4cccc5[nH]ccc45)CC3)CC2)c2cc(F)ccc21 [Example 38, 5-Fluoro-3-{cis-4-[4-(1H-indol-4-yl)-piperazinyl]-cyclohexyl}-1-methyl-1H-indole] | 124 nM |  | 7.22 nM |  | 
N#Cc1ccc2[nH]cc([C@H]3CC[C@@H](N4CCN(c5cccc6cccnc56)CC4)CC3)c2c1 [Example 29a, 3-[(1,4-cis)-4-(4-Quinolin-8-yl-piperazin-1-yl)-cyclohexyl]-1H-indole-5-carbonitrile] |  |  | 2.25 nM | 0% | 
N#Cc1ccc2[nH]cc([C@H]3CC[C@H](N4CCN(c5cccc6[nH]ccc56)CC4)CC3)c2c1 [Example 7b, 3-{4-[(1,4-trans)-4-(1H-Indol-4-yl)-piperazinyl-1-yl]cyclohexyl}-1H-indole-5-carbonitrile] |  |  | 4.19 nM | 83% | 
COc1ccccc1C1CCN([C@H]2CC[C@H](c3c[nH]c4ccc(F)cc43)CC2)CC1 [Example 19b, 5-Fluoro-3-{(1,4-trans)-4-[4-(2-methoxy-phenyl)-piperidin-1-yl]-cyclohexyl}-1H-indole] | 26.2 nM | 74% |  | 92% | 
N#Cc1ccc2[nH]cc([C@H]3CC[C@H](N4CCN(c5cc(F)cc6c5OCC6)CC4)CC3)c2c1 [Example 33b, 3-{(1,4-trans)-4-[4-(5-Fluoro-2,3-dihydro-benzofuran-7-yl)-piperazin-1-yl]-cyclohexyl}-1H-indole-5-carbonitrile] | 19.2 nM |  | 45 nM |  | 
Cn1ccc2c(N3CCN([C@H]4CC[C@@H](c5cn(C)c6ccc(C#N)cc65)CC4)CC3)cccc21 [Example 17, 1-Methyl-3-{(1,4-cis)-4-[4-(1-methyl-1H-indol-4-yl)-piperazin-1-yl]-cyclohexyl}-1H-indole-5-carbonitrile] |  |  | 2.5 nM |  | 0%
